Results as given in US9561228B2 (Celgene Avilomics Research, Inc., priority 2013, dated 2017).
pEC50: −log10 of the molar value.

Tests used:
Assay type in all cases: cell-based
[1] = tested on: ERK1/2 phosphorylation of p90RSK in HT29 cells; experiment: pRSK MSD Assay in HT29 cells; details: Homo sapiens, HT-29, read-out: ERK1/ERK2 PRSK MSD HT29 EC50
Summary of the method: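 Phospho-RSK level, read by electrochemiluminescence on RSK-antibody-coated MSD plates with a phospho-RSK/Sulfo-tag detection pair, reports cellular ERK1/2 activity. HT29 cells, kept overnight in 0.1% FBS medium, were exposed to compound for 120 min at 37° C before lysis.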

[2] = tested on: A375 cells (malignant melanoma); experiment: Inhibition of cancer cell proliferation, A375 (CellTiterGlo, 72 hours); details: Homo sapiens, A-375
Summary of the method: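 GI50 derived from % growth inhibition relative to untreated wells, after luminescence (CellTiterGlo, 10 min) was converted to cell counts using a standard curve. Compound given as 3-fold dilutions from a 2× 5,000 nM stock in serum-free DMEM; 3000 A375 cells/well, 72 h culture at 37 °C.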

[3] = tested on: ERK1/2 phosphorylation of p90RSK in HCT116 cells; experiment: Detection of total and phospho-RSK by MSD ELISA (HCT116); details: Homo sapiens, HCT-116, read-out: ERK1/ERK2 PRSK HCT116 EC50
Summary of the method: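 ERK1/2 activity read in cells as p90RSK phosphorylation: lysates from HCT116 cells given compound for 2 h at 37° C were captured on MSD plates. Detection used a pSer380 RSK or a total RSK antibody with SulfoTag secondaries.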

| SMILES | pEC50 [1] | GI50 [2] [nM] | pEC50 [3] |
| --- | --- | --- | --- |
| C=CC(=O)Nc1cc(C)ccc1Nc1nc(Nc2cc(OCCO)ncc2C)ncc1C(F)(F)F [Compound I-376, N-(2-((2-((2-(2-hydroxyethoxy)-5-methylpyridin-4-yl)amino)-5-(trifluoromethyl)pyrimidin-4-yl)amino)-5-methylphenyl)acrylamide] | > 7.00 | 101 to 500 | > 7.00 |
| C=CC(=O)Nc1cc(C)c(F)cc1Nc1nc(Nc2nc(OC)ncc2C)ncc1C(F)(F)F [Compound I-377, N-(4-fluoro-2-((2-((2-methoxy-5-methylpyrimidin-4-yl)amino)-5-(trifluoromethyl)pyrimidin-4-yl)amino)-5-methylphenyl)acrylamide] | > 7.00 | 101 to 500 | > 7.00 |
| C=CC(=O)Nc1cc(C)ccc1Nc1nc(Nc2ccnc3ccccc23)ncc1C(F)(F)F [Compound I-379, N-(5-methyl-2-((2-(quinolin-4-ylamino)-5-(trifluoromethyl)pyrimidin-4-yl)amino)phenyl)acrylamide] | > 7.00 | 101 to 500 | 6.00 to 6.30 |
| C=CC(=O)Nc1cc(OCC(N)=O)ccc1Nc1nc(Nc2cc(OC)ncc2C)ncc1C(F)(F)F [Compound I-398, N-(5-(2-amino-2-oxoethoxy)-2-((2-((2-methoxy-5-methylpyridin-4-yl)amino)-5-(trifluoromethyl)pyrimidin-4-yl)amino)phenyl)acrylamide] | > 7.00 | < 100 | > 7.00 |

Second part, the compound after the results:

| pEC50 [1] | GI50 [2] [nM] | pEC50 [3] | SMILES |
| --- | --- | --- | --- |
| > 7.00 | 101 to 500 | > 7.00 | C=CC(=O)Nc1cc(CN2CCN(C(C)=O)CC2)ccc1Nc1nc(Nc2cc(OC)ncc2C)ncc1C(F)(F)F [Compound I-381, N-(5-((4-acetylpiperazin-1-yl)methyl)-2-((2-((2-methoxy-5-methylpyridin-4-yl)amino)-5-(trifluoromethyl)pyrimidin-4-yl)amino)phenyl)acrylamide] |
| > 7.00 | < 100 | > 7.00 | C=CC(=O)Nc1cc(CN2CCN(S(C)(=O)=O)CC2)ccc1Nc1nc(Nc2cc(OC)ncc2C)ncc1C(F)(F)F [Compound I-384, N-(2-((2-((2-methoxy-5-methylpyridin-4-yl)amino)-5-(trifluoromethyl)pyrimidin-4-yl)amino)-5-((4-(methylsulfonyl)piperazin-1-yl)methyl)phenyl)acrylamide] |
| > 7.00 | < 100 | > 7.00 | C=CC(=O)Nc1cc(CN2CCN(C(=O)c3cccnc3)CC2)ccc1Nc1nc(Nc2cc(OC)ncc2C)ncc1C(F)(F)F [Compound I-389, N-(2-((2-((2-methoxy-5-methylpyridin-4-yl)amino)-5-(trifluoromethyl)pyrimidin-4-yl)amino)-5-((4-nicotinoylpiperazin-1-yl)methyl)phenyl)acrylamide] |
| > 7.00 | < 100 | > 7.00 | C=CC(=O)Nc1cc(CN2CCN(C(=O)c3cnccn3)CC2)ccc1Nc1nc(Nc2cc(OC)ncc2C)ncc1C(F)(F)F [Compound I-390, N-(2-((2-((2-methoxy-5-methylpyridin-4-yl)amino)-5-(trifluoromethyl)pyrimidin-4-yl)amino)-5-((4-(pyrazine-2-carbonyl)piperazin-1-yl)methyl)phenyl)acrylamide] |
| > 7.00 | 101 to 500 | > 7.00 | C=CC(=O)Nc1cc(CCC(N)=O)ccc1Nc1nc(Nc2cc(OC)ncc2C)ncc1C(F)(F)F [Compound I-400, N-(5-(3-amino-3-oxopropyl)-2-((2-((2-methoxy-5-methylpyridin-4-yl)amino)-5-(trifluoromethyl)pyrimidin-4-yl)amino)phenyl)acrylamide] |
